Measurements taken from patent publication US20040047922A1, “Preparation with vascular protective and anti-oxidative effect and use thereof” (priority 2000, published 2004).

Columns and labels:
LDL = assay: Cu(II)-induced formation of conjugated dienes in LDL isolated from plasma pre-incubated with the test substance (lag phase); format: biochemical; conditions: FIG. 2
Experimental: In-vitro LDL oxidation is a common model for testing various substances for their antioxidant properties because they accumulate in the LDL in vitro due to pre-incubation of the plasma with (primarily lipophilic) test substances (McLean und Hagaman, 1989, Biochemistry 28(1); pp. 321-327, Esterbauer et al, 1991b, Am. J. Clin. Nutr. 53, pp. 315S-321S). After accumulation, the influence of these substances on the oxidability of LDL can be studied.
Continuous measurement of the formation of conjugated dienes in LDL is an accepted method of comparing oxidizability of the lipid portion of various LDL samples (Esterbauer et al. 1989, Free Rad. Res. Comms. 6(1), pp. 67-75; Parthasarathy et al. 1998, Free Rad. Res. 28, pp. 583-591). […] The study was to find out whether accumulation of lemon oil or γ-terpinene in LDL can protect the LDL from Cu(II)-induced oxidation.
In another test, blood plasma was incubated with 0.5, 0.25, 0.1 and 0.01% γ-terpinene and the LDL isolated from it was tested for resistance against cooper-induced oxidation.

[1] = tested on: tryptophane residues in apo B-100 of LDL; assay: Cu(II)-induced loss of tryptophane fluorescence in LDL; format: biochemical; conditions: FIG. 5
From the text: Oxidation of HDL or LDL with Cu(II) goes along with a reduction of the tryptophane residues (Reyftmann et al., 1990, Biochim. Biophys. Acta 1042, pp. 159-167), which can be observed by measuring fluorescence. After adding Cu(II) to an LDL solution, fluorescence initially drops within a few seconds due to quenching effects caused by copper. […] The time before the slower phase changes into the faster phase can be defined as the lag phase, just like with diene conjugation. (Giessauf et.al., 1995, Biochim. Biophys. Acta 1256, pp. 221-232). The faster decline in fluorescence starts about at the same time as the propagation phase of diene conjugation and is most likely based on a reaction of lipid peroxidation products with tryptophane residues. We used this test system, too, to find out whether the accumulation of lemon oil or γ-terpinene in LDL influences the Cu(II)-induced loss of tryptophane fluorescence.

CC1=CCC(C(C)C)=CC1 [γ-terpinene]
lag phase of conjugated diene formation (LDL; 0.01% γ-terpinene in the plasma): clearly extended | extension of the lag phase of conjugated diene formation (LDL; 0.1% γ-terpinene in the plasma): about 250 minutes | time without reaching the propagation phase (LDL; higher concentrations in the plasma (0.25 and 0.5% γ-terpinene)): > 500 min | lag phase of conjugated diene formation (LDL; plasma incubated with 0.5, 0.25, 0.1 and 0.01% γ-terpinene, copper-induced oxidation): expands depending on concentration | oxidation of tryptophane residues in LDL ([1]; 0.5% of γ-terpinene in the plasma): almost completely prevents | early protein oxidation (loss of tryptophane fluorescence) ([1]; LDL enriched with γ-terpinene): slows down
